# Patent US20100080770A1, “Hepatitis C Virus Inhibitors” (priority 2008, published 2010)
# Where two headings read alike, the source gives them in different places.
# Experiments:
# [1] = tested on: HCV replicon in HUH-7 cells; assay: HCV replicon assay (FRET, confirmed in the luciferase reporter assay); format: cell-based; conditions: Hepatitis C virus, 96 h, 4 days
# Text: An HCV replicon whole cell system was established as described by Lohmann V, Korner F, Koch J, Herian U, Theilmann L, Bartenschlager R., Science 285(5424):110-3 (1999). This system enabled us to evaluate the effects of our HCV Protease compounds on HCV RNA replication. Briefly, using the HCV strain 1b sequence described in the Lohmann paper (Assession number: AJ238799), an HCV cDNA was synthesized by Operon Technologies, Inc. (Alameda, Calif.), and the full-length replicon was then assembled in plasmid pGem9zf(+) (Promega, Madison, Wis.) using standard molecular biology techniques. The replicon consists of (i) the HCV 5′ UTR fused to the first 12 amino acids of the capsid protein, (ii) the neomycin phosphotransferase gene (neo), (iii) the IRES from encephalomyocarditis virus (EMCV), and (iv) HCV NS3. to NS5B genes and the HCV 3′ UTR. Plasmid DNAs were linearized with Seal and RNA transcripts were synthesized in vitro using the T7 MegaScript transcription kit (Ambion, Austin, Tex.) according to manufacturer's directions. In vitro transcripts of the cDNA were transfected into the human hepatoma cell line, HUH-7. […] Resulting cell lines were characterized for positive and negative strand RNA production and protein production over time.
# The HCV replicon FRET assay was developed to monitor the inhibitory effects of compounds described in the disclosure on HCV viral replication. HUH-7 cells, constitutively expressing the HCV replicon, were grown in Dulbecco's Modified Eagle Media (DMEM) (Gibco-BRL) containing 10% Fetal calf serum (FCS) (Sigma) and 1 mg/ml G418 (Gibco-BRL). Cells were seeded the night before (1.5×10^4 cells/well) in 96-well tissue-culture sterile plates. Compound and no compound controls were prepared in DMEM containing 4% FCS, 1:100 Penicillin/Streptomysin (Gibco-BRL), 1:100 L-glutamine and 5% DMSO in the dilution plate (0.5% DMSO final concentration in the assay). Compound/DMSO mixes were added to the cells and incubated for 4 days at 37° C. After 4 days, cells were first assessed for cytotoxicity using alamar Blue (Trek Diagnotstic Systems) for a CC50 reading. The toxicity of compound (CC50) was determined by adding 1/10th volume of alamar Blue to the media incubating the cells. After 4 h, the fluorescence signal from each well was read, with an excitation wavelength at 530 nm and an emission wavelength of 580 nm, using the Cytofluor Series 4000 (Perspective Biosystems). Plates were then rinsed thoroughly with Phosphate-Buffered Saline (PBS) (3 times 150 μl).
# As a secondary assay, EC50 determinations from the replicon FRET assay were confirmed in a replicon luciferase reporter assay. Utilization of a replicon luciferase reporter assay was first described by Krieger et al (Krieger N, Lohmann V, and Bartenschlager R, J. Virol. 75(10):4614-4624 (2001)). The replicon construct described for our FRET assay was modified by inserting cDNA encoding a humanized form of the Renilla luciferase gene and a linker sequence fused directly to the 3′-end of the luciferase gene. This insert was introduced into the replicon construct using an Ascl restriction site located in core, directly upstream of the neomycin marker gene. The adaptive mutation at position 1179 (serine to isoleucine) was also introduced (Blight K J, Kolykhalov, A A, Rice, C M, Science 290(5498):1972-1974). A stable cell line constitutively expressing this HCV replicon construct was generated as described above. The luciferase reporter assay was set up as described for the HCV replicon FRET assay with the following modifications. Following 4 days in a 37° C./5% CO2 incubator, cells were analyzed for Renilla Luciferase activity using the Promega Dual-Glo Luciferase Assay System. Media (100 μl) was removed from each well containing cells. To the remaining 50 μl of media, 50 μl of Dual-Glo Luciferase Reagent was added, and plates rocked for 10 min to 2 h at room temperature. […]
# [2] = target: T1, HCV NS3/4A protease complex (Hepatitis C virus genotype 1a, UniProt P27958, C1454S/C1711G); assay: FRET peptide assay to monitor HCV NS3/4A proteolytic activity; format: biochemical; conditions: HCV NS3/4A protease complex, strain not stated, read-out: IC50
# T1 construct: recombinant HCV NS3/4A protease complex (amino acids 1027 to 1711); inferred from the pET21b vector and Ni-NTA purification; made in house; host or cells: Escherichia coli BL21 (DE3)
# Text: HCV NS3 protease complexes, derived from the BMS strain, H77 strain or J4L6S strain, were generated, as described below. These purified recombinant proteins were generated for use in a homogeneous assay (see below) to provide an indication of how effective compounds of the present disclosure would be in inhibiting HCV NS3 proteolytic activity.
# The H77 and J4L6S strains were used for production of recombinant NS3/4A protease complexes. DNA encoding the recombinant HCV NS3/4A protease complex (amino acids 1027 to 1711) for these strains was manipulated as described by P. Gallinari et al. (see Gallinari P, Paolini C, Brennan D, Nardi C, Steinkuhler C, De Francesco R. Biochemistry. 38(17):5620-32, (1999)). Briefly, a three-lysine solubilizing tail was added at the 3′-end of the NS4A coding region. The cysteine in the P1 position of the NS4A-NS4B cleavage site (amino acid 1711) was changed to a glycine to avoid the proteolytic cleavage of the lysine tag. Furthermore, a cysteine to serine mutation was introduced by PCR at amino acid position 1454 to prevent the autolytic cleavage in the NS3 helicase domain. The variant DNA fragment was cloned in the pET21b bacterial expression vector (Novagen) and the NS3/4A complex was expressed in Escherichia coli strain BL21 (DE3) (Invitrogen) following the protocol described by P. Gallinari et al. (see Gallinari P, Brennan D, Nardi C, Brunetti M, Tomei L, Steinkuhler C, De Francesco R., J Virol. 72(8):6758-69 (1998)) with modifications. Briefly, the NS3/4A protease complex expression was induced with 0.5 millimolar (mM) Isopropyl β-D-1-thiogalactopyranoside (IPTG) for 22 hours (h) at 20° C. A typical fermentation (1 Liter (L)) yielded approximately 10 grams (g) of wet cell paste. The cells were resuspended in lysis buffer (10 mL/g) consisting of 25 mM N-(2-Hydroxyethyl)Piperazine-N′-(2-Ethane Sulfonic acid) (HEPES), pH 7.5, 20% glycerol, 500 mM Sodium Chloride (NaCl), 0.5% Triton X-100, 1 microgram/milliliter (“μg/mL”) lysozyme, 5 mM Magnesium Chloride (MgCl2), 1 μg/ml DnaseI, 5 mM β-Mercaptoethanol (βME), Protease inhibitor-Ethylenediamine Tetraacetic acid (EDTA) free (Roche), homogenized and incubated for 20 minutes (min) at 4° C. The homogenate was sonicated and clarified by ultra-centrifugation at 235000 g for 1 hour (h) at 4° C. Imidazole was added to the supernatant to a final concentration of 15 mM and the pH adjusted to 8.0. The crude protein extract was loaded on a Nickel-Nitrilotriacetic acid (Ni-NTA) column pre-equilibrated with buffer B (25 mM HEPES, pH 8.0, 20% glycerol, 500 mM NaCl, 0.5% Triton X-100, 15 mM imidazole, 5 mM βME). The sample was loaded at a flow rate of 1 ml/min. The column was washed with 15 column volumes of buffer C (same as buffer B except with 0.2% Triton X-100). The protein was eluted with 5 column volumes of buffer D (same as buffer C except with 200 mM Imidazole).
# NS3/4A protease complex-containing fractions were pooled and loaded on a desalting column Superdex-S200 pre-equilibrated with buffer D (25mM HEPES, pH 7.5, 20% glycerol, 300 mM NaCl, 0.2% Triton X-100, 10 mM βME). Sample was loaded at a flow rate of 1 mL/min. NS3/4A protease complex-containing fractions were pooled and concentrated to approximately 0.5 mg/ml. The purity of the NS3/4A protease complexes, derived from the BMS, H77 and J4L6S strains, were judged to be greater than 90% by SDS-PAGE and mass spectrometry analyses. The enzyme was stored at −80° C., thawed on ice and diluted prior to use in assay buffer.
# The purpose of this in vitro assay was to measure the inhibition of HCV NS3 protease complexes, derived from the BMS strain, H77 strain or J4L6S strain, as described above, by compounds of the present disclosure. This assay provides an indication of how effective compounds of the present disclosure would be in inhibiting HCV NS3 proteolytic activity.
# In order to monitor HCV NS3/4A protease activity, an NS3/4A peptide substrate was used. […]
# T1 sequence (P27958 1027-1711 C1454S/C1711G, one chain of several): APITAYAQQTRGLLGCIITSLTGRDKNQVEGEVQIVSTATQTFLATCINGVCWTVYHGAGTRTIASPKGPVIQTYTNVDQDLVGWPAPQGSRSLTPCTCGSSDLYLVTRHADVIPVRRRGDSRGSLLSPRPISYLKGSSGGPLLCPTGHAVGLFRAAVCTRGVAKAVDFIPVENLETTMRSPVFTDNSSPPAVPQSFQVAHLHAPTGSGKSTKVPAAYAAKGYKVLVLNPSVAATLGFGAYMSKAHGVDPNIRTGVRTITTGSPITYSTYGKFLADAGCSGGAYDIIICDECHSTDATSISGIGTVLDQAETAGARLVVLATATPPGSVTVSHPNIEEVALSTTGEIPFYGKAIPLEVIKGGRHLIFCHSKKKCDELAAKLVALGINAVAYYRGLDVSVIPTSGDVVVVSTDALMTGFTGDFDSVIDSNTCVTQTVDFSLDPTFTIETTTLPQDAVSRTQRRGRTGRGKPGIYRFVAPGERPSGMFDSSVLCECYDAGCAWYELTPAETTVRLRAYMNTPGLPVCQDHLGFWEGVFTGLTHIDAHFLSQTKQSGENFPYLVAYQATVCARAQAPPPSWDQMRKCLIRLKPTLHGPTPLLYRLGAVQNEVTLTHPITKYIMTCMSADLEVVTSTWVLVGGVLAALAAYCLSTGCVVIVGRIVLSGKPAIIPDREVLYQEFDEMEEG
SMILES,EC50 ([1]; numeric values) [nM],IC50 ([2]; numeric values) [nM],EC50 ([1]; class symbols) [nM],IC50 ([2]; class symbols) [nM]
C=C[C@@H]1C[C@]1(NC(=O)[C@@H]1C[C@]2(OC)CN1C(=O)[C@H](C(C)(C)C)NC(=O)OCC/C=C\c1cc3cc2ccc3cc1OC)C(=O)NS(=O)(=O)C1CC1 [Example 1],120,31,,
C=C[C@@H]1C[C@]1(NC(=O)[C@@H]1C[C@]2(OC)CN1C(=O)[C@H](C(C)(C)C)NC(=O)OCCC/C=C\c1cc3cc2ccc3cc1OC)C(=O)NS(=O)(=O)C1CC1 [Example 4],,,1 to 10,1 to 10
C=C[C@@H]1C[C@]1(NC(=O)[C@@H]1C[C@]2(OC)CN1C(=O)[C@H](C(C)(C)C)NC(=O)OCCCCC=Cc1cc3cc2ccc3cc1OC)C(=O)NS(=O)(=O)C1CC1 [Example 7],,,1 to 10,1 to 10
C=C[C@@H]1C[C@]1(NC(=O)[C@@H]1C[C@]2(OC)CN1C(=O)[C@H](C(C)(C)C)NC(=O)OCC(C)(C)C/C=C\c1cc3cc2ccc3cc1OC)C(=O)NS(=O)(=O)C1CC1 [Example 8],,,1 to 10,1 to 10
C=C[C@@H]1C[C@]1(NC(=O)[C@@H]1C[C@]2(OC)CN1C(=O)[C@H](C(C)(C)C)NC(=O)OCC(C)(C)CCCc1cc3cc2ccc3cc1OC)C(=O)NS(=O)(=O)C1CC1 [Example 9],,,1 to 10,1 to 10
COc1cc2ccc3cc2cc1CCCC(C)(C)COC(=O)N[C@@H](C(C)(C)C)C(=O)N1C[C@@]3(OC)C[C@H]1C(=O)N[C@]1(C(=O)NS(=O)(=O)C2CC2)C[C@H]1C1CC1 [Example 10],,,21 to 150,11 to 12
COc1cc2ccc3cc2cc1CCCC(C)(C)COC(=O)N[C@@H](C(C)(C)C)C(=O)N1C[C@@]3(OC)C[C@H]1C(=O)N[C@]1(C(=O)NS(=O)(=O)C2CC2)C[C@H]1C(F)F [Example 11],,,11 to 20,1 to 10
C=C[C@@H]1C[C@]1(NC(=O)[C@@H]1C[C@]2(OC)CN1C(=O)[C@H](C(C)(C)C)NC(=O)OCCCCCCc1cc3cc2ccc3cc1OC)C(=O)NS(=O)(=O)C1CC1 [Example 12],2.84,1,,
COc1cc2ccc3cc2cc1CCCCCCOC(=O)N[C@@H](C(C)(C)C)C(=O)N1C[C@@]3(OC)C[C@H]1C(=O)N[C@]1(C(=O)NS(=O)(=O)C2CC2)C[C@H]1C1CC1 [Example 13],,,11 to 20,1 to 10
C=C[C@@H]1C[C@]1(NC(=O)[C@@H]1C[C@]2(OC)CN1C(=O)[C@H](C(C)(C)C)NC(=O)OCC(C)(C)CCCCc1cc3cc2ccc3cc1OC)C(=O)NS(=O)(=O)C1CC1 [Example 14],,,1 to 10,1 to 10
COc1cc2ccc3cc2cc1CCCCC(C)(C)COC(=O)N[C@@H](C(C)(C)C)C(=O)N1C[C@@]3(OC)C[C@H]1C(=O)N[C@]1(C(=O)NS(=O)(=O)C2CC2)C[C@H]1C1CC1 [Example 15],,,1 to 10,1 to 10
CC[C@@H]1C[C@]1(NC(=O)[C@@H]1C[C@]2(OC)CN1C(=O)[C@H](C(C)(C)C)NC(=O)OCC(C)(C)CCCCc1cc3cc2ccc3cc1OC)C(=O)NS(=O)(=O)C1CC1 [Example 16],,,21 to 150,11 to 12
C=C[C@@H]1C[C@]1(NC(=O)[C@@H]1C[C@]2(OC)CN1C(=O)[C@H](C(C)(C)C)NC(=O)OCCC(C)(C)CCCc1cc3cc2ccc3cc1OC)C(=O)NS(=O)(=O)C1CC1 [Example 17],,,1 to 10,1 to 10
COc1cc2ccc3cc2cc1CCCC(C)(C)CCOC(=O)N[C@@H](C(C)(C)C)C(=O)N1C[C@@]3(OC)C[C@H]1C(=O)N[C@]1(C(=O)NS(=O)(=O)C2CC2)C[C@H]1C(F)F [Example 18],,,1 to 10,1 to 10
COc1cc2ccc3cc2cc1CCCC(C)(C)CCOC(=O)N[C@@H](C(C)(C)C)C(=O)N1C[C@@]3(OC)C[C@H]1C(=O)N[C@]1(C(=O)NS(=O)(=O)C2CC2)C[C@H]1C1CC1 [Example 19],,,1 to 10,1 to 10
